# Source: US7112593B2, “N-aryl-substituted cyclic amine derivative and medicine containing the same as active ingredient” (Eisai Co., Ltd., priority 2001, dated 2006)
# What was measured:
# Squalene synthase = molecular target: T1, Squalene synthase (Rattus norvegicus, UniProt Q02769); test: Measurement of squalene synthase inhibitive activity by using a rat liver microsome; assay type: biochemical; details: [3H]-farnesylpyrophosphoric acid
# T1 construct: the obtained residue was used as a microsome fraction; from tissue; host or cells: liver microsome fraction of male Sprague-Dawley rat (8 to 9 weeks in age)
# T1 sequence (Q02769 1-416): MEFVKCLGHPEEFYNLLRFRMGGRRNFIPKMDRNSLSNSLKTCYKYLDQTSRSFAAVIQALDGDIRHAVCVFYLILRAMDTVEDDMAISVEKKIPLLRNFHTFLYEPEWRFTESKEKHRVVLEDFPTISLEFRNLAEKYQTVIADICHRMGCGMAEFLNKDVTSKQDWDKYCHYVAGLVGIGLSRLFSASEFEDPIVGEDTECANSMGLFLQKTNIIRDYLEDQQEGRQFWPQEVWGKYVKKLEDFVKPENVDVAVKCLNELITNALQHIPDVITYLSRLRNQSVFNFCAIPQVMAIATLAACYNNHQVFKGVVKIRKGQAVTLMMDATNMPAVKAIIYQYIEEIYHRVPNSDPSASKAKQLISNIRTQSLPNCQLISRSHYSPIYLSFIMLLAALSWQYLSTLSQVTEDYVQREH
# Protocol: Measurement of Squalene Synthase Inhibitive Activity by Using a Rat Liver Microsome
# (I) The reaction was run on a scale of 500 μl. 200 μl of a solution containing 125 mM tris-hydrochloric acid (pH: 7.3), 2.5 mM magnesium chloride, 5 mM potassium fluoride and 10 mM reduction type nicotinamidoadenine dinucleotide phosphoric acid, 100 μl of the specimen solution with a 5-fold concentration, 100 μl of distilled water and 50 μl of 0.4 to 1 mg/ml rat liver microsome prepared by the following method were mixed.
# (II) The above mixture was pre-incubated at 37° C. for 10 minutes and thereafter, 50 μl of 100 μM [^3H]-farnesylpyrophosphoric acid (30 mCi/mmol, NEN) was added to the mixture to start a reaction. The reaction was continued at 37° C. for 10 minutes. 1 ml of ethanol was added to the resulting mixture to terminate the reaction and then 1 ml of distilled water and 3 ml of petroleum ether were added to the reaction solution, which was then shaken for 30 minutes. The water phase was separated from the organic phase, the water phase was frozen at −70° C. in dry ice/methanol and the radio activity of the organic phase was measured using a liquid scintillator. Or the organic phase was evaporated to dryness using nitrogen gas and the residue was dissolved as a marker in 25 μl of chloroform containing squalene, farnesol and cholesterol. This sample was spotted on a TCL plate (Merck) and developed using heptane for 15 to 20 minutes. A band of squalene was cut from the plate to measure the radio activity by using a liquid scintillation counter. The data was expressed by a concentration (IC50) at which 50% of the radio activity of a control group was inhibited.
# Preparation Method for Rat Liver Microsome
# All the following operations were performed on ice and centrifugation was performed at 4° C. […] The protein concentration of the suspension was quantitated by the Bradford method and the suspension was adjusted to 20 mg/ml with the same solution and stored at −70° C.
# rat liver cell = test: Measurement of cholesterol biosynthesis inhibitive activity in a rat liver cell; assay type: cell-based; details: isolated male SD rat liver cells, [1-14C]acetic acid incorporation into free cholesterol
# Protocol: Measurement of Cholesterol Biosynthesis Inhibitive Activity in a Rat Liver Cell
# A liver cell was isolated from a male SD rat according to a usual method (collagenase perfusion method) and subjected to an experiment.
# The isolated liver cells were planted in an amount of 500 μl every well on a Type collagen coated 24 well plate (cell density: 4×10^5 cell/ml). As the cell culture solution, a Williams' E medium (adjusted to pH 7.4) containing 10% FCS, 1 μM insulin, 1 μM dexamethasone, 100 units/ml penicillin and 100 μg/ml streptomycin was used. After the liver cells were incubated in a CO2 incubator for 2 hours, unattached cells were removed and the liver cells were further incubated overnight.
# After the culture medium was exchanged, the specimen diluted in a 10% DMSO-90% cell culture solution was added to each well inan amount of 5 μl. DMSO (final concentration: 0.1%) was added toacontrolgroup. A [1-^14C]Aceticacid, sodiumsalt (5 μCi/well) was added to the media 10 minutes after the specimen was added, followed by culturing for further 2 hours. […]
# After the development was finished, the TLC plate was subjected to iodine color development. […] This transferred image was analyzed using a BAS 2000 IP Reader and an Imaging analyzer II to measure radio activities contained in the free cholesterol fractions. […]
IC50 (Squalene synthase),Structure (SMILES),IC50 (rat liver cell)
1.4 nM,"CO[C@@H]1CN(c2ccc(C#CC3(O)CCCNC3)c(Cc3ccccc3)n2)C[C@H]1O (stereo partly drawn) [Example 1, 3-[2-Benzyl-6-[(3R,4R)-3-hydroxy-4-methoxypyrrolidin-1-yl]-3-pyridyl]ethynyl-3-piperidinol]",0.45 nM
0.53 nM,"CO[C@@H]1CN(c2ccc(C#CC3(N)CCCCC3)c(Cc3ccccc3)n2)C[C@H]1O [Example 7, 1-[2-Benzyl-6-[(3R,4R)-3-hydroxy-4-methoxypyrrolidin-1-yl]-3-pyridyl]ethynylcyclohexylamine]",
0.78 nM,"CO[C@H]1C(=O)N(c2ccc(C#CC3(N)CCCCC3)c(Cc3ccccc3)n2)C[C@H]1O [Example 9, 1-[2-Benzyl-6-[(3R,4R)-4-hydroxy-3-methoxy-2-pyrrolidinon-1-yl]-3-pyridyl]ethynylcyclohexylamine]",
,"CO[C@H]1CN(c2ccc(C#C[C@@]3(O)CN4CCC3CC4)c(Cc3ccccc3)c2)C[C@H]1OC [Example 18, (3R)-3-[2-Benzyl-4-[(3R,4S)-3,4-dimethoxypyrrolidin-1-yl)phenyl]ethynyl-3-quinuclidinol]",0.16 nM
